Data: ChEMBL document CHEMBL4382229, “Benzofuran derivatives and their anti-tubercular, anti-bacterial activities” (Eur J Med Chem, 2019)
Converted amounts (≈) assume the structure as drawn.

Legend:
[1] = test system: Mycobacterium tuberculosis; test: Antimycobacterial activity against Mycobacterium tuberculosis H37Rv ATCC 27294 after 5 days by microplate alamar blue assay; format: functional; settings: H37Rv ATCC 27294, 120 h
Escherichia coli [2] = test: Antibacterial activity against Escherichia coli assessed as zone of inhibition at 50 ug/ml after 3 days by filter paper disc method; format: functional; settings: 72 h, read-out: IZ
Pseudomonas aeruginosa [3] = test: Antibacterial activity against Pseudomonas aeruginosa assessed as zone of inhibition at 50 ug/ml after 3 days by filter paper disc method; format: functional; settings: 72 h, read-out: IZ
Pseudomonas aeruginosa [4] = test: Antibacterial activity against Pseudomonas aeruginosa by broth dilution method; format: functional
Staphylococcus aureus [5] = test: Antibacterial activity against Staphylococcus aureus MTCC 96 assessed as zone of inhibition at 100 ug/ml by disc diffusion method; format: functional; settings: read-out: IZ
Streptococcus pyogenes = test: Antibacterial activity against Streptococcus pyogenes MTCC 442 assessed as zone of inhibition at 100 ug/ml by disc diffusion method; format: functional; settings: read-out: IZ
Escherichia coli [6] = test: Antibacterial activity against Escherichia coli MTCC 443 assessed as zone of inhibition at 100 ug/ml by disc diffusion method; format: functional; settings: read-out: IZ
Pseudomonas aeruginosa [7] = test: Antibacterial activity against Pseudomonas aeruginosa MTCC 424 assessed as zone of inhibition at 100 ug/ml by disc diffusion method; format: functional; settings: read-out: IZ
[8] = biological target: DNA gyrase subunit A/DNA gyrase subunit B (Mycobacterium tuberculosis (strain ATCC 25618 / H37Rv), UniProt P9WG45+P9WG47); test: Inhibition of Mycobacterium tuberculosis H37Rv DNA gyrase A/B expressed in Escherichia coli assessed as reduction in supercoiling of relaxed pBR322 DNA substrate measured after 60 mins by ethidium bromide staining based agarose gel electrophoresis method
Bacillus subtilis = test: Antibacterial activity against Bacillus subtilis MTCC 1134 after 24 hrs by broth dilution method; format: functional; settings: MTCC 1134, 24 h
Escherichia coli [9] = test: Antibacterial activity against Escherichia coli MTCC 1559 after 24 hrs by broth dilution method; format: functional; settings: MTCC 1559, 24 h
Pseudomonas aeruginosa [10] = test: Antibacterial activity against Pseudomonas aeruginosa MTCC 1034 after 24 hrs by broth dilution method; format: functional; settings: MTCC 1034, 24 h
Staphylococcus aureus [11] = test: Antibacterial activity against Staphylococcus aureus assessed as diameter of inhibition zone at 250 ug/ml after 24 hrs by disc diffusion method; format: functional; settings: read-out: DIZ
Escherichia coli [12] = test: Antibacterial activity against Escherichia coli assessed as diameter of inhibition zone at 250 ug/ml after 24 hrs by disc diffusion method; format: functional; settings: read-out: DIZ
Bacillus spizizenii = test: Antibacterial activity against Bacillus subtilis ATCC 6633 after 24 hrs by broth dilution method; format: functional; settings: ATCC 6633, 24 h
Staphylococcus aureus [13] = test: Antibacterial activity against Staphylococcus aureus ATCC 29213 after 24 hrs by broth dilution method; format: functional; settings: ATCC 29213, 24 h
Escherichia coli [14] = test: Antibacterial activity against Escherichia coli ATCC 11229 after 24 hrs by broth dilution method; format: functional; settings: ATCC 11229, 24 h
Proteus vulgaris = test: Antibacterial activity against Proteus vulgaris […] after 24 hrs by broth dilution method; format: functional

`O=C(O)c1cn(C2CC2)c2cc(N3CCNCC3)c(F)cc2c1=O` [CIPROFLOXACIN] gave an MIC [1] of 3.12 µg/mL (≈ 9.43 µM), a zone of inhibition at 50 µg/mL (Escherichia coli [2]) of 25 to 28 mm and a zone of inhibition at 50 µg/mL (Pseudomonas aeruginosa [3]) of 25 to 28 mm. The MIC (Pseudomonas aeruginosa [4]) was under 4 µg/mL, the zone of inhibition at 100 µg/mL (Staphylococcus aureus [5]) was 21 to 28 mm and the zone of inhibition at 100 µg/mL (Streptococcus pyogenes) was 21 to 28 mm. The zone of inhibition at 100 µg/mL (Escherichia coli [6]) was 21 to 28 mm and the zone of inhibition at 100 µg/mL (Pseudomonas aeruginosa [7]) was 21 to 28 mm.
With `O=C(N/N=C1\C(=O)N(c2ccccc2)c2ccccc21)c1cc2ccccc2o1` the IC50 [8] was 50 to 200 µM.
`Nc1nn2c(-c3ccc(N4CCCCC4)cc3)cc(-c3cc4ccccc4o3)nc2c1/N=N/c1ccccc1` was tested, and the zone of inhibition at 50 µg/mL (Escherichia coli [2]) was 9 to 18 mm and the zone of inhibition at 50 µg/mL (Pseudomonas aeruginosa [3]) was 9 to 18 mm.
`CN[C@@H]1[C@H](O[C@H]2[C@H](O[C@H]3[C@H](O)[C@@H](O)[C@H](N=C(N)N)[C@@H](O)[C@@H]3N=C(N)N)O[C@@H](C)[C@]2(O)C=O)O[C@@H](CO)[C@H](O)[C@H]1O` [STREPTOMYCIN] was tested, and the MIC [1] was 6.25 µg/mL (≈ 10.7 µM), the MIC (Bacillus subtilis) was 17.2 to 19.4 µg/mL (≈ 29.7 to 33.3 µM) and the MIC (Escherichia coli [9]) was 17.2 to 19.4 µg/mL (≈ 29.7 to 33.3 µM). It also gave an MIC (Pseudomonas aeruginosa [10]) of 17.2 to 19.4 µg/mL (≈ 29.7 to 33.3 µM).
Work on `NC(=O)c1cnccn1` [PYRAZINAMIDE] yielded an MIC [1] of 3.12 µg/mL (≈ 25.4 µM).
`Cc1cc(NS(=O)(=O)c2cccs2)c2oc(COC(=O)NCc3ccccc3)cc2c1` was tested, and the zone of inhibition at 100 µg/mL (Staphylococcus aureus [5]) was 11 to 28 mm, the zone of inhibition at 100 µg/mL (Streptococcus pyogenes) was 11 to 28 mm and the zone of inhibition at 100 µg/mL (Escherichia coli [6]) was 11 to 28 mm. It also gave a zone of inhibition at 100 µg/mL (Pseudomonas aeruginosa [7]) of 11 to 28 mm.
`O=C1Nc2ccc(F)cc2/C1=N/NC(=O)c1cc2cc([N+](=O)[O-])ccc2o1` gave an IC50 [8] of 50 to 200 µM.
`Cc1c(C(=O)NN)oc2ccccc12` was tested, and the MIC [1] was 6.25 µg/mL (≈ 32.9 µM).
`Cc1ccc(S(=O)(=O)Nc2cc(C)cc3cc(COC(=O)NCc4ccccc4)oc23)cc1` was tested, and the zone of inhibition at 100 µg/mL (Staphylococcus aureus [5]) was 11 to 28 mm, the zone of inhibition at 100 µg/mL (Streptococcus pyogenes) was 11 to 28 mm and the zone of inhibition at 100 µg/mL (Escherichia coli [6]) was 11 to 28 mm. For the same molecule, the zone of inhibition at 100 µg/mL (Pseudomonas aeruginosa [7]) was 11 to 28 mm.
`O=C1Nc2ccc(Cl)cc2/C1=N/NC(=O)c1cc2ccccc2o1` gave an IC50 [8] of 50 to 200 µM.
With `COc1ccc(S(=O)(=O)Nc2cc(C)cc3cc(COC(=O)NCc4ccccc4)oc23)cc1` the zone of inhibition at 100 µg/mL (Staphylococcus aureus [5]) was 19 to 28 mm, the zone of inhibition at 100 µg/mL (Streptococcus pyogenes) was 19 to 28 mm and the zone of inhibition at 100 µg/mL (Escherichia coli [6]) was 19 to 28 mm. The zone of inhibition at 100 µg/mL (Pseudomonas aeruginosa [7]) was 19 to 28 mm.
`Cc1ccc(Oc2nc3ccc(C)cc3cc2/C=N\NC(=O)c2cc(-c3cc4ccccc4o3)n(-c3ccccc3)n2)cc1` was tested, and the zone of inhibition at 250 µg/mL (Staphylococcus aureus [11]) was 12 to 14 mm and the zone of inhibition at 250 µg/mL (Escherichia coli [12]) was 12 to 14 mm.
`Cc1ccc(Oc2nc3ccc(C)cc3cc2C2SCC(=O)N2NC(=O)c2cc(-c3cc4ccccc4o3)n(-c3ccccc3)n2)cc1` (stereo not given) showed a zone of inhibition at 250 µg/mL (Staphylococcus aureus [11]) of 12 to 14 mm and a zone of inhibition at 250 µg/mL (Escherichia coli [12]) of 12 to 14 mm.
Work on `CCOc1ccc(-c2nn(-c3ccccc3)cc2/C=C/c2oc3c4c(ccc3c2C(=O)c2ccc(Br)cc2)OCC=C4)cc1` yielded an MIC (Bacillus spizizenii) of 6.3 to 25 µg/mL (≈ 9.79 to 38.8 µM), an MIC (Staphylococcus aureus [13]) of 6.3 to 25 µg/mL (≈ 9.79 to 38.8 µM) and an MIC (Escherichia coli [14]) of 6.3 to 25 µg/mL (≈ 9.79 to 38.8 µM). The MIC (Proteus vulgaris) was 6.3 to 25 µg/mL (≈ 9.79 to 38.8 µM).
In the case of `Cc1cc(NS(=O)(=O)c2ccccc2)c2oc(COC(=O)NCc3ccccc3)cc2c1`, the zone of inhibition at 100 µg/mL (Staphylococcus aureus [5]) is reported as 11 to 28 mm, the zone of inhibition at 100 µg/mL (Streptococcus pyogenes) is reported as 11 to 28 mm and the zone of inhibition at 100 µg/mL (Escherichia coli [6]) is reported as 11 to 28 mm. It also gave a zone of inhibition at 100 µg/mL (Pseudomonas aeruginosa [7]) of 11 to 28 mm.
For `CC(=O)Nc1cc(C)cc2cc(COC(=O)NCc3ccccc3)oc12`, the zone of inhibition at 100 µg/mL (Staphylococcus aureus [5]) was 11 to 28 mm, the zone of inhibition at 100 µg/mL (Streptococcus pyogenes) was 11 to 28 mm and the zone of inhibition at 100 µg/mL (Escherichia coli [6]) was 11 to 28 mm. The zone of inhibition at 100 µg/mL (Pseudomonas aeruginosa [7]) was 11 to 28 mm.
`Cc1cc(NC(=O)c2ccccc2)c2oc(COC(=O)NCc3ccccc3)cc2c1` showed a zone of inhibition at 100 µg/mL (Staphylococcus aureus [5]) of 11 to 28 mm, a zone of inhibition at 100 µg/mL (Streptococcus pyogenes) of 11 to 28 mm and a zone of inhibition at 100 µg/mL (Escherichia coli [6]) of 11 to 28 mm. The zone of inhibition at 100 µg/mL (Pseudomonas aeruginosa [7]) was 11 to 28 mm.
With `COc1ccc(-c2nn(-c3ccccc3)cc2/C=C/c2oc3c4c(ccc3c2C(=O)c2ccc(Br)cc2)OCC=C4)cc1OC` the MIC (Bacillus spizizenii) was 1.6 to 3.1 µg/mL (≈ 2.43 to 4.7 µM), the MIC (Staphylococcus aureus [13]) was 1.6 to 3.1 µg/mL (≈ 2.43 to 4.7 µM) and the MIC (Escherichia coli [14]) was 1.6 to 3.1 µg/mL (≈ 2.43 to 4.7 µM). It also gave an MIC (Proteus vulgaris) of 1.6 to 3.1 µg/mL (≈ 2.43 to 4.7 µM).
In the case of `O=C1Nc2ccc([N+](=O)[O-])cc2/C1=N/NC(=O)c1cc2ccccc2o1`, the IC50 [8] is reported as 50 to 200 µM.
With `Cc1cc(NS(=O)(=O)c2ccc(Cl)cc2)c2oc(COC(=O)NCc3ccccc3)cc2c1` the zone of inhibition at 100 µg/mL (Staphylococcus aureus [5]) was 11 to 28 mm, the zone of inhibition at 100 µg/mL (Streptococcus pyogenes) was 11 to 28 mm and the zone of inhibition at 100 µg/mL (Escherichia coli [6]) was 11 to 28 mm. For the same molecule, the zone of inhibition at 100 µg/mL (Pseudomonas aeruginosa [7]) was 11 to 28 mm.
In the case of `Cc1ccc2c(c1)/C(=N/NC(=O)c1cc3ccccc3o1)C(=O)N2`, the IC50 [8] is reported as 50 to 200 µM.
In the case of `COc1ccc(-c2nn(-c3ccccc3)cc2/C=C/c2oc3c4c(ccc3c2C(=O)c2ccc(Br)cc2)OCC=C4)cc1`, the MIC (Bacillus spizizenii) is reported as 3.1 to 6.3 µg/mL (≈ 4.92 to 10 µM), the MIC (Staphylococcus aureus [13]) is reported as 3.1 to 6.3 µg/mL (≈ 4.92 to 10 µM) and the MIC (Escherichia coli [14]) is reported as 3.1 to 6.3 µg/mL (≈ 4.92 to 10 µM). The MIC (Proteus vulgaris) was 3.1 to 6.3 µg/mL (≈ 4.92 to 10 µM).
